Patent publication US7723358B2, “Aroyl-O-piperidine derivatives for the treatment of diabetes-related problems” (Merck Patent GmbH, priority 2004, dated 2010)

Molecular target: T1, microsomal triglyceride transfer protein (MTP) (Mesocricetus auratus, UniProt P55158)
T1 construct: The supernatant comprising the soluble MTP is dialysed against Tris/HCl 150 mM; from tissue; host or cells: golden hamster liver microsomes, deoxycholate-solubilised supernatant, dialysed
T1 sequence (P55158 19-895): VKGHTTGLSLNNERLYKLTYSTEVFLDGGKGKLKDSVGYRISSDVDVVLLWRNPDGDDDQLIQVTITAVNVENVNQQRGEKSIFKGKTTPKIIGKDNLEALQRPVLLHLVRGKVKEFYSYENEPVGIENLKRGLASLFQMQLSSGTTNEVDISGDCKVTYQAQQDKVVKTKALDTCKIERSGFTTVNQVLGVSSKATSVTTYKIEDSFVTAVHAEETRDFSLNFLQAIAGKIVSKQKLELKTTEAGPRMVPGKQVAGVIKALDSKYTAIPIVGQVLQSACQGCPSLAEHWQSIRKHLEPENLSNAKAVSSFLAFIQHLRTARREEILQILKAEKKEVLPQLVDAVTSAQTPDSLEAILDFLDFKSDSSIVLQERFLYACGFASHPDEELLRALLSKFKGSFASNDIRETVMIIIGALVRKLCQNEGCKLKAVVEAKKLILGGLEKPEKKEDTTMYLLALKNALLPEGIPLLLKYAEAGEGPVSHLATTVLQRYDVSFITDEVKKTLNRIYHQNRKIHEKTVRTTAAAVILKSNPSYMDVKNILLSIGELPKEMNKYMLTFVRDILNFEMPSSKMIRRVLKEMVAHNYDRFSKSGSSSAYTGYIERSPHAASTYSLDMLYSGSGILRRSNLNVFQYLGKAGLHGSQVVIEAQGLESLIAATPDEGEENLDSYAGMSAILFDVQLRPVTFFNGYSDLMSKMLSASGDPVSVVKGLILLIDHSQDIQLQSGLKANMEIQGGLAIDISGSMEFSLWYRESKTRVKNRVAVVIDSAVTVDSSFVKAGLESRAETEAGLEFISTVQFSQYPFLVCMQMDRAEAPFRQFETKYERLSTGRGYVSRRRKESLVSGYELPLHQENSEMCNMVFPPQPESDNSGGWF
Test: Inhibition of MTP activity: transfer of [3H]-triolein from donor liposomes to biotinylated LDL, SPA
Format: biochemical
Details: MTP from golden hamster liver; incubation 18-24 hours at 37° C.; read-out: IC50, concentration that allows a 50% inhibition of MTP
Experimental: Analysis of the Inhibition of MTP Activity
The inhibition of the activity of microsomal triglyceride transfer protein (MTP) was tested by using the following operating protocol.
The inhibition of MTP activity with a compound can be quantified by observing the inhibition of the transfer of a labelled triglyceride, from a donor particle to an acceptor particle, in the presence of MTP. The procedure for the preparation of MTP is based on the method by Wetterau and Zilversmit (Biochem. Biophys. Acta (1986) 875, 610). A few grams of golden hamster liver are taken and then rinsed several times in a 250 mM sucrose solution at 0° C. All the following steps proceed at +4° C. A homogenate at a concentration of 50% in 250 mM sucrose is prepared using a Teflon mill and then centrifuged for 10 minutes at 10 000×g at +4° C. The supernatant is then centrifuged at 105 000×g for 75 minutes at +4° C. The supernatant is discarded and the microsomal pellet is taken up in 3 ml (per g of starting liver) of Tris/HCl 150 mM pH 8.0. 1-ml aliquot fractions are stored at −80° C. until the time of use.
After thawing a fraction of microsomes (1 ml), 12 ml of refrigerated Tris/HCl 50 mM, KCl 50 mM, MgCl2 5 mM pH 7.4 buffers and 1.2 ml of deoxycholate (0.54% in water) are added. After incubation for 30 minutes at +4° C. with gentle agitation, the suspension is centrifuged at 105 000×g for 75 minutes. The supernatant comprising the soluble MTP is dialysed against Tris/HCl 150 mM, NaCl 40 mM, EDTA 1 mM, 0.02% sodium azide pH 7.4 buffer (5 times one litre over 2-3 days). The MTP is stored at +4° C., is stable for at least 30 days and is used in unmodified form in the test.
The donor particles (liposomes) are prepared from 208 μl of L-phosphatidylcholine at a concentration of 10 mg/ml in chloroform, and 480 μl of [3H]-triolein at a concentration of 0.5 mCi/ml in toluene. After stirring, the solution is evaporated under nitrogen, taken up in 6 ml of Tris/HCl 50 mM, KCl 50 mM, MgCl2 5 mM pH 7.4 buffer and incubated in an ultrasound bath for 30 minutes at room temperature. The liposomes are stored at +4° C. and sonicated again for 10 minutes before each use.
The acceptor particles are biotinylated low density lipoproteins (LDL-biot). These particles are supplied by the company Amersham.
The reaction mixture is prepared in untreated ½ well white plates (Corning Costar) by addition, in the following order, of: 5 μl of HEPES 50 mM, NaCl 150 mM, BSA 0.1% (w/v), 0.05% sodium azide (w/v), pH 7.4 buffer; 5 μl of liposome; 5 μl of LDL-biot; 5 μl of test products in DMSO; 5 μl of MTP. After incubation for 18-24 hours at 37° C., the reaction is stopped by adding 100 μl of Amersham SPA (Scintillation Proximity Assay) beads coupled to streptavidin, and the radioactivity is counted using a Top Count (Packard) machine at least one hour later. The inhibition of the transfer of the triglycerides with a compound is reflected by a reduction in the transferred radioactivity.
The results are expressed in terms of the IC50, i.e. the concentration that allows a 50% inhibition of MTP.

SMILES	IC50 [nM]
Cc1cccc(CN2CCC(Oc3cccc(NC(=O)c4cccc(C)c4-c4ccc(OC(F)(F)F)cc4)c3)CC2)n1 [Example 83, 6-methyl-N-[3-[[1-[(6-methyl-2-pyridinyl)-methyl]-4-piperidinyl]oxy]phenyl]-4′-(trifluoromethoxy)[1,1′-biphenyl]-2-carboxamide]	633
Cc1cccc(C(=O)Nc2cccc(OC3CCN(C(=O)Nc4cccc(C(F)(F)F)c4)CC3)c2)c1-c1ccc(OC(F)(F)F)cc1 [Example 24, 4-[3-[[[6-methyl-4-(trifluoromethoxy)[1,1′-4-biphenyl]-2-yl]carbonyl]amino]phenoxy]-N-[3-(trifluoromethyl)phenyl]-1-piperidine-carboxamide]	459
Cc1cccc(C(=O)Nc2cccc(OC3CCN(S(=O)(=O)c4cccnc4Cl)CC3)c2)c1-c1ccc(OC(F)(F)F)cc1 [Example 19, N-[3-[[1-[(2-chloro-3-pyridinyl)sulfonyl]-4-piperidinyl]oxy]phenyl]-6-methyl-4′-(trifluoromethoxy)[1,1′-biphenyl]-2-carboxamide]	290
O=C(Nc1cccc(OC2CCN(C(=O)c3ccccc3)CC2)c1)c1ccccc1-c1ccc(OC(F)(F)F)cc1 [Example 119, N-[3-[(1-benzoyl-4-piperidinyl)oxy]phenyl]-4′-(trifluoromethoxy)[1,1′-biphenyl]-2-carboxamide]	661
COc1ccc(C(=O)N2CCC(Oc3cccc(NC(=O)c4ccccc4-c4ccc(OC(F)(F)F)cc4)c3)CC2)cc1OC [Example 104]	294
Cc1cccc(C(=O)Nc2cccc(OC3CCN(C(=O)c4ccco4)CC3)c2)c1-c1ccc(OC(F)(F)F)cc1 [Example 111, N-[3-[[1-(2-furanylcarbonyl)-4-piperidinyl]-oxy]phenyl]-6-methyl-4′-(trifluorometh-oxy)[1,1′-biphenyl]-2-carboxamide]	409
COc1ccc(CC(=O)N2CCC(Oc3cccc(NC(=O)c4ccccc4-c4ccc(OC(F)(F)F)cc4)c3)CC2)cc1OC [Example 110, N-[3-[[1-[2-(3,4-dimethoxyphenyl)acetyl]-4-piperidinyl]oxy]phenyl]-4′-(trifluoro-methoxy)[1,1′-biphenyl]-2-carboxamide]	469
Cc1ccc(CN2CCC(Oc3cccc(NC(=O)c4cccc(C)c4-c4ccc(OC(F)(F)F)cc4)c3)CC2)cc1 [Example 85, 6-methyl-N-[3-[[1-[(4-methylphenyl)-methyl]-4-piperidinyl]oxy]phenyl]-4′-(trifluoromethoxy)[1,1′-biphenyl]-2-carboxamide]	392
Cc1ccc(NC(=O)N2CCC(Oc3cccc(NC(=O)c4cccc(C)c4-c4ccc(OC(F)(F)F)cc4)c3)CC2)cc1 [Example 29, N-(4-methylphenyl)-4-(3-[[[6-methyl-4′-(trifluoromethoxy)[1,1′-biphenyl]-2-yl]-carbonyl]amino]phenoxy]-1-piperidine-carboxamide]	268
Cc1cccc(C(=O)Nc2cccc(OC3CCN(CC4CCOC4)CC3)c2)c1-c1ccc(OC(F)(F)F)cc1 (stereo not shown) [Example 78, 6-methyl-N-[3-[[1-[(tetrahydro-3-furanyl)-methyl]-4-piperidinyl]oxy]phenyl]-4′-(tri-fluoromethoxy)[1,1′-biphenyl]-2-carbox-amide]	447
COC(=O)CC(=O)N1CCC(Oc2cccc(NC(=O)c3ccccc3-c3ccc(OC(F)(F)F)cc3)c2)CC1 [Example 125, methyl β-oxo-4-[3-[[[4′-(trifluoromethoxy)-[1,1′-biphenyl]-2-yl]carbonyl]amino]-phenoxy]-1-piperidinepropanoate]	252

The next molecules have a lower IC50 than those just listed; values first:

IC50 [nM]	SMILES
219	Cc1ccc(C(=O)N2CCC(Oc3cccc(NC(=O)c4ccccc4-c4ccc(OC(F)(F)F)cc4)c3)CC2)cc1 [Example 130, N-[3-[[1-(4-methylbenzoyl)-4-piperidinyl]-oxy]phenyl]-4′-(trifiuoromethoxy)[1,1′-biphenyl]-2-carboxamide]
201	COC(=O)c1cccc(NC(=O)N2CCC(Oc3cccc(NC(=O)c4cccc(C)c4-c4ccc(OC(F)(F)F)cc4)c3)CC2)c1 [Example 43, methyl 3-[[[4-[3-[[[6-methyl-4′-(trif1uoro-methoxy)[1,1′-biphenyl]-2-yl]carbonyl]-amino]phenoxy]-1-piperidinyl]carbonyl]-amino]benzoate]
189	Cc1cccc(C(=O)Nc2cccc(OC3CCN(Cc4ccncc4)CC3)c2)c1-c1ccc(OC(F)(F)F)cc1 [Example 66, 6-methyl-N-[3-[[1-(4-pyridinylmethyl)-4-piperidinyl]oxy]phenyl]-4′-(trifluorometh-oxy)[1,1′-biphenyl]-2-carboxamide]
136	Cc1cccc(C(=O)Nc2cccc(OC3CCN(C(=O)CC(C)C)CC3)c2)c1-c1ccc(OC(F)(F)F)cc1 [Example 129, 6-methyl-N-[3-[[1-(3-methyl-1-oxobutyl)-4-piperidinyl]oxy]phenyl]-4′-(trifluorometh-oxy)[1,1′-biphenyl]-2-carboxamide]
128	CCOC(=O)CCC(=O)N1CCC(Oc2cccc(NC(=O)c3cccc(C)c3-c3ccc(OC(F)(F)F)cc3)c2)CC1 [Example 96, ethyl 4-[3-[[[6-methyl-4′-(trifluoromethoxy)-[1,1′-biphenyl]-2-yl]carbonyl]amino]-phenoxy]-γ-oxo-1-piperidinebutanoate]
118	Cc1cccc(C(=O)Nc2cccc(OC3CCN(C(=O)c4ccccc4)CC3)c2)c1-c1ccc(OC(F)(F)F)cc1 [Example 143, N-[3-[(1-benzoyl-4-piperidinyl)oxy]phenyl]-6-methyl-4′-(trifluoromethoxy)[1,1′-biphenyl]-2-carboxamide]
111	Cc1cccc(C(=O)Nc2cccc(OC3CCN(C(=O)Nc4ccc(N(C)C)cc4)CC3)c2)c1-c1ccc(OC(F)(F)F)cc1 [Example 51, N-[4-(dimethylamino)phenyl]-4-[3-[[[6-methyl-4′-(trifluoromethoxy)[1,1′-biphenyl]-2-yl]carbonyl]amino]phenoxy]-1-piperidinecarboxamide]
82.7	CCOC(=O)CNC(=O)N1CCC(Oc2cccc(NC(=O)c3cccc(C)c3-c3ccc(OC(F)(F)F)cc3)c2)CC1 [Example 31, ethyl N-[[4-[3-[[[6-methyl-4′-(trifluorometh-oxy)[1,1′-biphenyl]-2-yl]carbonyl]amino]-phenoxy]-1-piperidinyl]carbonyl]glycinate]
